Data: patent US5104880A, “Huperzine a analogs as acetylcholinesterase inhibitors” (Mayo Foundation for Medical Education and Research, priority 1991, dated 1992)
Read-outs that look alike come from different tables or passages of the source.

Tests used:
AChE [1] = details: vs (±)-huperzine A; cited from earlier work
squirrel monkeys = details: cited from earlier work
myasthenia gravis = details: 128 patients; cited from earlier work
animals = details: studies performed in China; cited from earlier work
mice = details: cited from earlier work
AChE [2] = target: T1, AChE (Rattus norvegicus, UniProt P37136); experiment: biochemical
T1 construct: from tissue; host or cells: rat hippocampus, crude homogenate (P2 synaptosome-rich fraction)
Description: *Assayed using rat hippocampal crude homogenates over a concentration
in 10% DMSO made up in the incubation buffer medium. In addition, those
hydrochloric acid and sonicated briefly until they dissolved in the
solution. In each case, the control medium always consisted of the same
ingredients as those which were used to dissolve the compound under
The activity of these new compounds was assayed using AChE isolated from rat brain. […] Rats were killed by decapitation and the brains were extirpated rapidly. […] Homogenates were centrifuged at 1000×g for 10 min to remove cell nuclei and heavy debris. […] A portion of this synaptosome-rich fraction was added in triplicate to ice-cold pH 7.4 Krebs-Ringer medium.
Assay of AChE was carried out according to the method described in C. […] Tissue homogenate was incubated for 30 min at 30° C. in a final volume of […] containing 75 mM sodium phosphate buffer, pH 7.0, and 1.5 mM [^14 C]acetylcholine (1.9 mCi/mmol). […] The tubes were vortexed for 10 sec, then centrifuged for 1 min. The bottom aqueous layer was quickly frozen in a dry ice/acetone bath, and the top organic layer aspirated off. Finally, the buffer was allowed to thaw, and a 25 μl portion was counted for the amount of [^14 C]acetate formed. The amount of residual [^14 C]acetylcholine left in the buffer by the extraction step alone was determined by subtracting from the tissue sample values of [^14 C]acetylcholine measured in a blank sample that contained buffer and substrate, but no tissue.

AChE [3] = details: as AChE inhibitors for treatment of AD; cited from earlier work
AChE [4] = details: 0.65 mg/kg i.m.; cited from earlier work
Alzheimer's Disease = details: cited from earlier work
[5] = 0.65 mg/kg i.m.; cited from earlier work

T1 sequence (P37136 32-614): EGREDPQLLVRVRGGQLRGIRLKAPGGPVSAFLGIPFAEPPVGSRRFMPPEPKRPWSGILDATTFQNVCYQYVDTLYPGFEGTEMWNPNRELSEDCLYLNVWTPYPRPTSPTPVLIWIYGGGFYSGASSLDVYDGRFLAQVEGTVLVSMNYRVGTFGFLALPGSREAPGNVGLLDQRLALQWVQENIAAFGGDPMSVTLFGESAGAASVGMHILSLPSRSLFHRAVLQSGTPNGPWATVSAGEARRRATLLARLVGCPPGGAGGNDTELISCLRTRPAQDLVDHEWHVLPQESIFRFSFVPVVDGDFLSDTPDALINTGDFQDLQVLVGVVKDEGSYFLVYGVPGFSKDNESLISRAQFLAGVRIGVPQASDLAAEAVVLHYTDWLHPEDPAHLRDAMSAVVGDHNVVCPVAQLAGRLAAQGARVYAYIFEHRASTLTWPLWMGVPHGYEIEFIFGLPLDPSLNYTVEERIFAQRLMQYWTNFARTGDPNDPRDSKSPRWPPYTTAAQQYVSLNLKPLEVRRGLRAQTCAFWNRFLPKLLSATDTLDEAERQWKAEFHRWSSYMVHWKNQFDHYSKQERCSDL

C/C=C1\C2C=C(C)CC1(CN)c1ccc(=O)[nH]c1C2 (stereo not shown)
times less potent than (±)-huperzine A as an inhibiter of AChE (AChE [1]): about 166 times

CC=C1C2C=C(C)CC1(N)c1ccc(=O)[nH]c1C2 (single isomer, unassigned; (-)) [Compound 1a, (-)-Huperzine A]
cognition enhancement (squirrel monkeys): effective cognition enhancer | control of the clinical manifestations of myasthenia gravis (cases) (myasthenia gravis): 99% | memory and learning (animals): improve memory and learning in animals | cognition enhancement (mice): effective cognition enhancer

CC=C1C2CCCC1(N)c1ccc(=O)[nH]c1C2 (stereo not shown) [Compound 3, C15 -desmethyl-(C8 -C15)dihydrohuperzine]
IC50 (AChE [2]; AChE isolated from rat brain, read-out: IC50 value (AChE)): 1.3e-05 M | fold less potent than natural huperzine A (AChE [2]; considering the racemic nature of compound 3): at least fifty-fold

CC1=CC2Cc3[nH]c(=O)ccc3C(N)(C1)/C2=C/Cl (stereo not shown) [Compound 13, 11-DESMETHYL-11-CHLORO-HUPERZINE A]
IC50 (AChE [2]; AChE IC50 (M)*, Table I, rat hippocampal crude homogenates, 10^-11 M to 10^-3 M, 10% DMSO in buffer): 8.09e-07 M

CC1=C[C@H]2Cc3[nH]c(=O)ccc3[C@]3(C1)NCCC[C@H]23 [huperzine B]
memory and learning (animals): improve memory and learning in animals | comparison with THA and physostigmine (AChE [3]): appear superior to THA and physostigmine

CNC(=O)Oc1ccc2c(c1)[C@]1(C)CCN(C)[C@@H]1N2C [physostigmine]
maximal duration of action (AChE inhibitory action) (AChE [4]): ≤ 60 min | cognitive improvement (Alzheimer's Disease): modest cognitive improvement | side effects [5]: causes considerable side effects
